Experimental data published in patent US9321782B2, “Process for preparation of novel 42-O-(heteroalkoxyalkyl) rapamicin compounds with anti-proliferative properties” (MERIL LIFE SCIENCES PVT. LTD., priority 2010, dated 2016).
Several values for one entry are separate records, joined by “and”; a condition that tells them apart may be missing. Equal entries are not always repeated.

Columns and labels:
[1] = Stability analysis (HPLC purity on storage) without BHT at various temperatures; assay type: physicochemical; settings: for Purity (%): without BHT
Procedure: (§1) To check the purity of the 42-O-(heteroalkoxyalkyl) rapamycin compounds the following condition was followed by using High Performance Liquid Chromatography, Phenomenex Synergi Hydro-RP 80a (250×4.6 ) mm, 4 micron column. The mobile phase was 65:15:20 methanol:acetonitile:water mixture. The detector was set at 276 nm and the flow rate was adjusted to 1.5 mL/min. Column temperature was 40° C. 2.0 μg of 42-O-(heteroalkoxyalkyl) rapamycin compounds was injected onto the column in a volume of 5.0 μL methanol with run time of 50 min.
The purity loss was higher at increased temperature, but there was no apparent change in the impurity profile. Table 2A presents the purity of various 42-O-(heteroalkoxyalkyl) rapamycin compounds at different time intervals and temperature conditions.

[2] = Stability analysis (HPLC purity on storage) with various concentrations of BHT at 40° C.; assay type: physicochemical; settings: sealed container
Procedure: as §1
The inventors have also conducted the stability study of various 42-O-(heteroalkoxyalkyl) rapamycin compounds as mentioned above using various BHT concentrations. The study was conducted at 40° C. temperature in sealed container for 8 weeks.
42-O-(heteroalkoxyalkyl) rapamycin compounds obtained as per procedure described in Example 1 are respectively added with anti-oxidant, namely Butylated Hydroxytoluene (or BHT), at a concentration of 0.1%, 0.2%, 0.5%, and 1.0% (w/w) based on 100% (w/w) of 42-O-(heteroalkoxyalkyl) rapamycin compounds in sealed container to study the stability at 40° C. temperature. […] The purity data with the addition of different amounts of anti-oxidant as added to 42-O-(tetrahydrofuran-3-yl) rapamycin compound, 42-O-(oxetan-3-yl) rapamycin compound and 42-O-(tetrahydropyran-3-yl) rapamycin compound checked at different time intervals are summarized in Table 2B as below mentioned.

[3] = test system: human aorta smooth muscle cell cultures (hAoSMCs); experiment: In-vitro anti-proliferative potency, BrdU assay, human smooth muscle cells; assay type: cell-based; settings: BrdU incorporation, over 5 orders of magnitude concentration, compared with rapamycin
Text: (§2) In-vitro assessment of relative anti-proliferative effect of novel mTOR inhibitors 42-O-(oxetan-3-yl) rapamycin compound and 42-O-(tetrahydrofuran-3-yl) rapamycin compound with rapamycin was done on human and rabbit smooth muscle cell culture models. In which, human aorta and rabbit illiac artery smooth muscle cell cultures were subjected to increasing doses of 42-O-(oxetan-3-yl) rapamycin compound 42-O-(tetrahydrofuran-3-yl) rapamycin compound and rapamycin over 5 orders of magnitude concentration in the cell culture medium. The ability of the cell culture to reproduce was assessed after drug exposure by addition of a BromodeoxyUridine (BrdU) coloured reagent which causes a colour change in the surviving cells. The extent of colour development was quantified at 450 nm wavelength using a spectrophotometer microplate reader (BMG Labtech, FLUOstar OPTIMA). […] On the contrary, lower OD values reflect less incorporation on BrdU and a shift towards cell inhibition. Growth inhibition was calculated by subtracting positive control OD values, which represent 100% uninhibited growth.

[4] = test system: L-929 (ATCC cell lines CCL-1, NCTC clone 929) Mus musculus mouse fibroblast cells; experiment: In-vitro cytotoxicity test by extraction method; assay type: cell-based; settings: extract in contact with L-929 cells for 48 hours
Procedure: In-vitro assessment was done to check the cytotoxic or necrotic potential of the 42-O-(tetrahydrofuran-3-yl) rapamycin and 42-O-(oxetan-3-yl) rapamycin compounds by extraction method. In this study extracts of test substance were kept in contact with a multiple culture of L-929 (ATCC cell lines CCL-1, NCTC clone 929) Mus musculus mouse fibroblast cells for 48 hours. The cells were examined microscopically to assess the changes for its general morphology, vacuolization, detachment, cell lysis and membrane integrity.

rabbit blood [5] = experiment: In-vitro haemolysis test; assay type: cell-based; settings: for Haemolytic Index, Mean ± S. D.: mean of three test extracts, rabbit blood, 4 hrs
Procedure: Haemolysis test was conducted on rabbit blood by in-vitro method to check the haemolytic effect of 42-O-(tetrahydrofuran-3-yl) rapamycin (Merilimus-1) compound and 42-O-(oxetan-3-yl) rapamycin (Merilimus-2) compound. In this study the extracts of the test substances in triplicate were kept in contact with rabbit blood and incubated for 4 hrs. The concentration of plasma haemoglobin liberated in supernatant was calculated by comparing with absorbance of the standard solution in a spectrophotometer at 540 nm.

[6] = test system: rabbit illiac artery smooth muscle cell cultures (RbIASMCs); experiment: In-vitro anti-proliferative potency, BrdU assay, rabbit smooth muscle cells; assay type: cell-based; settings: BrdU incorporation, over 5 orders of magnitude concentration, compared with rapamycin
Text: as §2

rabbit blood [7] = experiment: Haemocompatibility test (thrombosis, coagulation, platelet count, leucocyte count); assay type: cell-based
Procedure: Haemocompatibility test is conducted to evaluate biological safety of the blood contacting 42-O-([…]) rapamycin and 42-O-(oxetan-3-yl) rapamycin compounds for the medical device. The interaction of test substance with rabbit blood was checked for thrombosis, coagulation, platelet count and leucocyte count.

[8] = test group, individual rabbits No. 1-3

Stability (in words) ([1]; purified compounds without anti-oxidant): more thermally stable
Purity (%) ([1]; 5° C. (sealed), 00 weeks after synthesis): 98.6%
Purity (%) ([1]; 5° C. (sealed), 02 weeks after synthesis): 97.8%
Purity (%) ([1]; 5° C. (sealed), 04 weeks after synthesis): 97.0%
Purity (%) ([1]; 5° C. (sealed), 08 weeks after synthesis): 96.7%
Purity (%) ([1]; 5° C. (sealed), 12 weeks after synthesis): 96.3%
Purity (%) ([1]; 25° C. (sealed), 00 weeks after synthesis): 98.7%
Purity (%) ([1]; 25° C. (sealed), 02 weeks after synthesis): 97.6%
Purity (%) ([1]; 25° C. (sealed), 04 weeks after synthesis): 96.9%
Purity (%) ([1]; 25° C. (sealed), 08 weeks after synthesis): 96.7%
Purity (%) ([1]; 25° C. (sealed), 12 weeks after synthesis): 94.1%
Purity (%) ([1]; 25° C. (unsealed), 00 weeks after synthesis): 98.4%
Purity (%) ([1]; 25° C. (unsealed), 02 weeks after synthesis): 97.1%
Purity (%) ([1]; 25° C. (unsealed), 04 weeks after synthesis): 96.7%
Purity (%) ([1]; 25° C. (unsealed), 08 weeks after synthesis): 95.2%
Purity (%) ([1]; 25° C. (unsealed), 12 weeks after synthesis): 93.6%
Purity (%) ([1]; 40° C. (sealed), 00 weeks after synthesis): 98.6%
Purity (%) ([1]; 40° C. (sealed), 02 weeks after synthesis): 96.7%
Purity (%) ([1]; 40° C. (sealed), 04 weeks after synthesis): 96.3%
Purity (%) ([1]; 40° C. (sealed), 08 weeks after synthesis): 94.7%
Purity (%) ([1]; 40° C. (sealed), 12 weeks after synthesis): 93.5%
Purity (%) ([2]; BHT 0.0% (w/w), 0 week): 98.6%
Purity (%) ([2]; BHT 0.0% (w/w), 2 weeks): 96.7%
Purity (%) ([2]; BHT 0.0% (w/w), 4 weeks): 96.3%
Purity (%) ([2]; BHT 0.0% (w/w), 8 weeks): 94.7%
Purity (%) ([2]; BHT 0.1% (w/w), 0 week): 98.6%
Purity (%) ([2]; BHT 0.1% (w/w), 2 weeks): 98.5%
Purity (%) ([2]; BHT 0.1% (w/w), 4 weeks): 98.5%
Purity (%) ([2]; BHT 0.1% (w/w), 8 weeks): 98.4%
Purity (%) ([2]; BHT 0.2% (w/w), 0 week): 98.5%
Purity (%) ([2]; BHT 0.2% (w/w), 2 weeks): 98.5%
Purity (%) ([2]; BHT 0.2% (w/w), 4 weeks): 98.5%
Purity (%) ([2]; BHT 0.2% (w/w), 8 weeks): 98.4%
Purity (%) ([2]; BHT 0.5% (w/w), 0 week): 98.5%
Purity (%) ([2]; BHT 0.5% (w/w), 2 weeks): 98.4%
Purity (%) ([2]; BHT 0.5% (w/w), 4 weeks): 98.4%
Purity (%) ([2]; BHT 0.5% (w/w), 8 weeks): 98.3%
Purity (%) ([2]; BHT 1.0% (w/w), 0 week): 98.5%
Purity (%) ([2]; BHT 1.0% (w/w), 2 weeks): 98.4%
Purity (%) ([2]; BHT 1.0% (w/w), 4 weeks): 98.4%
Purity (%) ([2]; BHT 1.0% (w/w), 8 weeks): 98.3%
Purity after eight-weeks of storage ([2]; with various concentrations of BHT (concentration not given)): 98.3%
Haemocompatibility (in words) (rabbit blood [7]; all haematological findings compared to control): haemocompatible
Coagulation (PTT in sec.) (rabbit blood [7]; [8]): 36 sec. (2×) and 39 sec.
Differential leucocyte count: Basophile % (rabbit blood [7]; [8]): 00%
Differential leucocyte count: Eosinophil % (rabbit blood [7]; [8]): 01%
Differential leucocyte count: Lymphocyte % (rabbit blood [7]; [8]): 43% and 50% (2×)
Differential leucocyte count: Monocyte % (rabbit blood [7]; [8]): 01% (2×) and 02%
Differential leucocyte count: Neutrophil % (rabbit blood [7]; [8]): 55% and 47% and 48%
Distribution of cells: Platelets (rabbit blood [7]; [8]): Normal
Distribution of cells: RBC (rabbit blood [7]; [8]): Normal
Distribution of cells: WBC (rabbit blood [7]; [8]): Normal
Thrombosis (rabbit blood [7]; [8]): Nil
Compound: COC1CC(C[C@H](C)[C@@H]2CC(=O)[C@H](C)/C=C(\C)C(O)[C@@H](OC)C(=O)[C@H](C)C[C@H](C)/C=C/C=C/C=C(\C)[C@@H](OC)C[C@@H]3CC[C@@H](C)[C@@](O)(O3)C(=O)C(=O)N3CCCC[C@H]3C(=O)O2)CCC1OC1CCOC1 (some centres unmarked) [Merilimus-1, 42-O-(tetrahydrofuran-3-yl) rapamycin]
Growth suppression of smooth muscle cells (in words) [3]: more effectively inhibited growth of smooth muscle cells than rapamycin
Toxic effect on cells (in words) [4]: did not reveal any toxic effect on cells
Haemolytic Index (rabbit blood [5]; individual test extracts 1-3, rabbit blood, incubated 4 hrs, = Haemoglobin released/Haemoglobin present × 100): 1.4 and 1.7 and 1.9
Haemolytic Index, Mean ± S. D. (rabbit blood [5]): 1.7 ± 0.02
Haemolytic Index, Mean ± S. D. (rabbit blood [5]; listed as 42-O-(tetrahydrofuran-3-yl) rapamycin): 1.7
Haemolytic nature (in words) (rabbit blood [5]; on the basis of haemolytic index): non-haemolytic
Growth suppression of smooth muscle cells (in words) [6]: more effectively inhibited growth of smooth muscle cells than rapamycin
Leucocyte count (rabbit blood [7]; [8]): 7.3 Thousand/cmm and 6.8 Thousand/cmm and 7.4 Thousand/cmm
Platelet count (rabbit blood [7]; [8]): 4.9 lakhs/cmm and 4.6 lakhs/cmm and 4.5 lakhs/cmm
